According to US20020137929A1, “1 - (3-heterocyclylphenyl) isothiourea, -isourea, -guanidine and -amidine herbicidal agents” (Intellectual Property Department, BASF Aktiengesellschaft, priority 1998, published 2002):

Assays:
[1] = test system: TRZAWR (Wheat, Winter, cv Riband); experiment: Postemergence herbicidal evaluation; format: in vivo, Triticum aestivum; conditions: postemergence
Method in brief: (§1)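 Visual 0–9 rating versus control (stand, vigor, malformation, size, chlorosis, overall appearance), taken four to five weeks post-spray. Two-week-old seedlings received roughly 0.0156–0.500 kg/ha active in acetone/water (50/50) with 0.5% TWEEN 20 via nozzle at 40 psi.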

[2] = test system: CHEAL (Lambsquarters, Common); experiment: Preemergence herbicidal evaluation; format: in vivo, Chenopodium album; conditions: rated 4-5 weeks after treatment
Method in brief: (§2)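 Seeds were planted in potting soil in cups, then sprayed preemergence with the test compound in aqueous acetone at about 0.0156 to 0.500 kg per hectare. Cups were kept under greenhouse conditions and visually rated 4–5 weeks after treatment on a 0–9 scale against an untreated control.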

ABUTH (Velvetleaf) = experiment: Preemergence herbicidal evaluation; format: in vivo, Abutilon theophrasti; conditions: rated 4-5 weeks after treatment
Method in brief: as §2

[3] = test system: SAGPY (Arrowhead (Pygmaea)); experiment: Preemergence weed control under flooded paddy conditions; format: in vivo, Sagittaria pygmaea; conditions: rated 3-4 weeks after treatment
Method in brief: (§3)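 Seeds or propagules sown in silt loam kept flooded 1.5-3 cm; compounds in 50/50 acetone/water pipetted into flood water at about 0.0313 to 0.500 kg/ha. Greenhouse; visual 0-9 rating versus untreated control 3-4 weeks after treatment.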

MOOVA (Monochoria) = experiment: as above; format: in vivo, Monochoria vaginalis; conditions: rated 3-4 weeks after treatment
Method in brief: as §3

[4] = test system: GLXMAW (Soybean, Williams); experiment: Postemergence herbicidal evaluation; format: in vivo, Glycine max, (L.) Merr. cv Williams; conditions: postemergence
Method in brief: as §1

ECHCG (Barnyardgrass) = experiment: Postemergence herbicidal evaluation; format: in vivo, Echinochloa crus-galli; conditions: postemergence
Method in brief: as §1

AMBEL (Ragweed, Common) [5] = experiment: Preemergence herbicidal evaluation; format: in vivo, Ambrosia artemisifolia; conditions: rated 4-5 weeks after treatment
Method in brief: as §2

ORYSAT (Rice, Tebonnet) = experiment: Preemergence herbicidal evaluation; format: in vivo, Oryza sativa, (L.) Tebonnet; conditions: rated 4-5 weeks after treatment
Method in brief: as §2

[6] = test system: GLXMAW (Soybean, Williams); experiment: Preemergence herbicidal evaluation; format: in vivo, Glycine max, (L.) Merr. cv Williams; conditions: rated 4-5 weeks after treatment
Method in brief: as §2

CASOB (Sicklepod) [7] = experiment: Preemergence herbicidal evaluation; format: in vivo, Cassia obtusifolia; conditions: rated 4-5 weeks after treatment
Method in brief: as §2

[8] = test system: IPOHE (Morningglory, Ivyleaf); experiment: Preemergence herbicidal evaluation; format: in vivo, Ipomoea hederacea; conditions: rated 4-5 weeks after treatment
Method in brief: as §2

[9] = test system: CHEAL (Lambsquarters, Common); experiment: Postemergence herbicidal evaluation; format: in vivo, Chenopodium album; conditions: postemergence
Method in brief: as §1

[10] = test system: IPOHE (Morningglory, Ivyleaf); experiment: Postemergence herbicidal evaluation; format: in vivo, Ipomoea hederacea; conditions: postemergence
Method in brief: as §1

CASOB (Sicklepod) [11] = experiment: Postemergence herbicidal evaluation; format: in vivo, Cassia obtusifolia; conditions: postemergence
Method in brief: as §1

AMBEL (Ragweed, Common) [12] = experiment: Postemergence herbicidal evaluation; format: in vivo, Ambrosia artemisifolia; conditions: postemergence
Method in brief: as §1

C=CCOC(=O)CC1SC(=Nc2cc(-n3c(=O)cc(C(F)(F)F)n(C)c3=O)c(F)cc2Cl)N(CC=C)C1=O (stereo not shown) [Compound 65, Allyl 3-allyl-2-{(2-chloro-5-[3,6-dihydro-3-methyl-2,6-dioxo-4-(trifluoromethyl)-1(2H)-pyrimidinyl]-4-fluorophenyl}imino}-4-oxo-5-thiazolidineacetate]
9.0: Preemergence herbicidal rating CHEAL ([2]; rate 0.0156 kg/ha) | Preemergence herbicidal rating CHEAL ([2]; rate 0.0313 kg/ha) | Preemergence herbicidal rating CHEAL ([2]; rate 0.0625 kg/ha) | Preemergence herbicidal rating CHEAL ([2]; rate 0.1250 kg/ha) | Preemergence herbicidal rating CHEAL ([2]; rate 0.2500 kg/ha) | Preemergence herbicidal rating ABUTH (ABUTH (Velvetleaf); rate 0.0313 kg/ha) | Preemergence herbicidal rating ABUTH (ABUTH (Velvetleaf); rate 0.0625 kg/ha) | Preemergence herbicidal rating ABUTH (ABUTH (Velvetleaf); rate 0.1250 kg/ha) | Preemergence herbicidal rating ABUTH (ABUTH (Velvetleaf); rate 0.2500 kg/ha) | MOOVA herbicidal effect rating (MOOVA (Monochoria); 0.0313 kg/ha) | MOOVA herbicidal effect rating (MOOVA (Monochoria); 0.0625 kg/ha) | MOOVA herbicidal effect rating (MOOVA (Monochoria); 0.1250 kg/ha) | MOOVA herbicidal effect rating (MOOVA (Monochoria); 0.2500 kg/ha) | Preemergence herbicidal rating AMBEL (AMBEL (Ragweed, Common) [5]; rate 0.1250 kg/ha) | Preemergence herbicidal rating AMBEL (AMBEL (Ragweed, Common) [5]; rate 0.2500 kg/ha) | Preemergence herbicidal rating IPOHE ([8]; rate 0.1250 kg/ha) | CHEAL herbicidal rating ([9]; rate 0.0158 kg/ha) | CHEAL herbicidal rating ([9]; rate 0.0315 kg/ha) | CHEAL herbicidal rating ([9]; rate 0.0630 kg/ha) | IPOHE herbicidal rating ([10]; rate 0.0158 kg/ha) | IPOHE herbicidal rating ([10]; rate 0.0315 kg/ha) | IPOHE herbicidal rating ([10]; rate 0.0630 kg/ha) | AMBEL herbicidal rating (AMBEL (Ragweed, Common) [12]; rate 0.0158 kg/ha) | AMBEL herbicidal rating (AMBEL (Ragweed, Common) [12]; rate 0.0630 kg/ha)
3.0: ECHCG herbicidal rating (ECHCG (Barnyardgrass); rate 0.0158 kg/ha) | CASOB herbicidal rating (CASOB (Sicklepod) [11]; rate 0.0630 kg/ha)
0.0: Preemergence herbicidal rating ORYSAT (ORYSAT (Rice, Tebonnet); rate 0.0156 kg/ha) | Preemergence herbicidal rating ORYSAT (ORYSAT (Rice, Tebonnet); rate 0.0313 kg/ha) | Preemergence herbicidal rating GLXMAW ([6]; rate 0.0313 kg/ha) | Preemergence herbicidal rating CASOB (CASOB (Sicklepod) [7]; rate 0.0156 kg/ha) | Preemergence herbicidal rating CASOB (CASOB (Sicklepod) [7]; rate 0.0313 kg/ha) | Preemergence herbicidal rating IPOHE ([8]; rate 0.0156 kg/ha) | Preemergence herbicidal rating IPOHE ([8]; rate 0.0313 kg/ha) | CASOB herbicidal rating (CASOB (Sicklepod) [11]; rate 0.0158 kg/ha)
4.0: TRZAWR herbicidal rating ([1]; rate 0.0158 kg/ha) | SAGPY herbicidal effect rating ([3]; 0.0625 kg/ha) | Preemergence herbicidal rating AMBEL (AMBEL (Ragweed, Common) [5]; rate 0.0625 kg/ha)
7.0: TRZAWR herbicidal rating ([1]; rate 0.0315 kg/ha) | TRZAWR herbicidal rating ([1]; rate 0.0630 kg/ha) | SAGPY herbicidal effect rating ([3]; 0.2500 kg/ha) | ECHCG herbicidal rating (ECHCG (Barnyardgrass); rate 0.0315 kg/ha) | ECHCG herbicidal rating (ECHCG (Barnyardgrass); rate 0.0630 kg/ha) | Preemergence herbicidal rating IPOHE ([8]; rate 0.2500 kg/ha) | AMBEL herbicidal rating (AMBEL (Ragweed, Common) [12]; rate 0.0315 kg/ha)
2.0: Preemergence herbicidal rating ABUTH (ABUTH (Velvetleaf); rate 0.0156 kg/ha) | SAGPY herbicidal effect rating ([3]; 0.0313 kg/ha) | Preemergence herbicidal rating AMBEL (AMBEL (Ragweed, Common) [5]; rate 0.0313 kg/ha) | Preemergence herbicidal rating GLXMAW ([6]; rate 0.1250 kg/ha) | Preemergence herbicidal rating CASOB (CASOB (Sicklepod) [7]; rate 0.2500 kg/ha) | CASOB herbicidal rating (CASOB (Sicklepod) [11]; rate 0.0315 kg/ha)
5.0: SAGPY herbicidal effect rating ([3]; 0.1250 kg/ha) | Preemergence herbicidal rating GLXMAW ([6]; rate 0.2500 kg/ha)
8.0: GLXMAW herbicidal rating ([4]; rate 0.0315 kg/ha)
1.0: Preemergence herbicidal rating AMBEL (AMBEL (Ragweed, Common) [5]; rate 0.0156 kg/ha) | Preemergence herbicidal rating ORYSAT (ORYSAT (Rice, Tebonnet); rate 0.0625 kg/ha) | Preemergence herbicidal rating ORYSAT (ORYSAT (Rice, Tebonnet); rate 0.1250 kg/ha) | Preemergence herbicidal rating GLXMAW ([6]; rate 0.0156 kg/ha) | Preemergence herbicidal rating GLXMAW ([6]; rate 0.0625 kg/ha) | Preemergence herbicidal rating CASOB (CASOB (Sicklepod) [7]; rate 0.0625 kg/ha) | Preemergence herbicidal rating CASOB (CASOB (Sicklepod) [7]; rate 0.1250 kg/ha) | Preemergence herbicidal rating IPOHE ([8]; rate 0.0625 kg/ha)
7.5: GLXMAW herbicidal rating ([4]; rate 0.0158 kg/ha) | GLXMAW herbicidal rating ([4]; rate 0.0630 kg/ha)
6.0: Preemergence herbicidal rating ORYSAT (ORYSAT (Rice, Tebonnet); rate 0.2500 kg/ha)
